Values quoted from earlier work in publication PMC6270976, “Pharmacokinetic Study in Mice of Galphimine-A, an Anxiolytic Compound from Galphimia glauca” (Molecules, 2014).
Entries after “also recorded” stand apart in the source; their conditions may differ. Like-named read-outs stand apart in the source and are kept apart here.

Legend:
[1] = cited from earlier work
[2] = parameters: method as in PMID 18452416; details: humans; cited from earlier work
[3] = parameters: method as in PMID 14758039; details: cited from earlier work

Question: Which Anxiolytic activity ([1]; among the galphimines) does the source give for `COC(=O)[C@@]12CC[C@@]3(C)[C@@H]4C=CC(=O)OC[C@]4([C@@H](C)O)C[C@@H](O)[C@@H]3[C@@]1(C)CC[C@@]1(C)CC=C(C)C[C@]12O` [G–B, galphimine-B] here?
Answer: Its Anxiolytic activity is “most active; also recorded: highest anxiolytic activity”.

Question: Which Anxiolytic activity [1] does the source give for `COC(=O)[C@@]12CC[C@@]3(C)[C@@H]4C=CC(=O)OC[C@]4([C@@H](C)O)[C@@H](OC(C)=O)[C@@H](O)[C@@H]3[C@@]1(C)CC[C@@]1(C)CC=C(C)C[C@]12O` [G–E, galphimine-E] here?
Answer: The Anxiolytic activity was “inactive”.

Question: Which k10 [2] does the source give for `CC1(C)[C@@H](O)CC[C@]2(C)[C@H]3C(=O)C=C4[C@@H]5C[C@@](C)(C(=O)O)CC[C@]5(C)CC[C@@]4(C)[C@]3(C)CC[C@@H]12` [glycyrrhetinic acid] here?
Answer: The k10 was 0.0012 min⁻¹.

Question: And the “k10 (elimination rate constant)” value ([3]; mice, 100 mg/kg orally, one-compartment model)?
Answer: Its value is 0.0006 min⁻¹.

Question: What about the “AUC0→∞” value ([3]; oral administration in mice) of the same compound?
Answer: Its value is 2,454 µg·min·mL^−1.
